Data from patent US12391659B2, “Benzothiazole and related compounds” (Spinogenix, Inc., priority 2017, dated 2025).

System: primary mouse cortical neurons
Assay: In vitro spinogenesis: synaptophysin (P38) puncta / synapse count in primary mouse cortical neurons
Assay type: cell-based
Details: for increase in the number of synapses compared to the control: 1 μM, 24 hrs of treatment starting at DIV 15, DIV 16 neurons; for number of synaptic puncta (P38-immunopositive) compared to the vehicle control: 5 μM, 24 hours of treatment starting at DIV 15, DIV 16 neurons
From the text: Compounds of the current invention bind to the actin bundling protein, fascin, and prevent the formation of long, stiff actin cytoskeleton, thereby promoting dendritic spine formation. (see, Sedeh, R. S. et al. J. Mol. Biol. 400, 589-604 (2010); Chen, L. et al. Nature 464, 1062-1066 (2010); Jansen, S. et al. J. Biol. Chem. 286, 30087-30096 (2011); Yang, S. et al. J. Biol. Chem. 288, 274-284 (2013); Zheng, S. et al. J. Med. Chem. 57, 6653-6667 (2014)). […] Specifically, the Benzothiazole-IIIA and Benzothiazole-IIIB compounds of the instant invention, as well as the Benzothiazole-I compound as described in International application number PCT/US2017/012139, were used in this study (FIG. 1).
Primary mouse cortical neurons were treated with 5 μM of Benzothiazole-I, Benzothiazole-IIIA, or Benzothiazole-IIIB at DIV 15. As a control, primary mouse cortical neurons were treated with the vehicle only (10% DMSO, 90% phosphate buffered saline (PBS)). After 24 hours, the DIV 16 neurons were fixed, immunostained using the presynaptic vesicle protein synaptophysin (P38), counterstained with the nuclear dye DAPI (4′,6-diamidino-2-phenylindole,), and counted. Immunolabeled neurons were imaged on a Leica confocal microscope. The numbers of P38-immunopositive puncta were analyzed using FIJI with the Squash plugin (FIG. 2).
In a similar experiment, the primary mouse cortical neurons were treated with 1 μM of Benzothiazole-I or Benzothiazole-IIIB at DIV 15, using the same DMSO/PBS buffer solution described above as the control vehicle. After 24 hours, the DIV 16 neurons were fixed, immunolabeled with synaptophysin, stained with DAPI, and counted as described above.

| Compound | increase in the number of synapses compared to the control | number of synaptic puncta (P38-immunopositive) compared to the vehicle control |
| --- | --- | --- |
| OCCOCCOCCOCCOc1ccc(-c2nc3ccccc3s2)cc1 [Benzothiazole-IIIB, 2-(2-(2-(2-(4-(benzo[d]thiazol-2-yl)phenoxy)ethoxy)ethoxy)ethoxy)ethan-1-ol] | ~100% | increase |
| Cc1ccc2nc(-c3ccc(NCCOCCOCCOCCO)cc3)sc2c1 [Benzothiazole-I, ((4-(6-methylbenzo[d]thiazol-2-yl)phenyl)amino)-(CH2CH2O)4H, reference compound] | ~100% | increase |
| OCCOCCOCCOCCOCCOCCOc1ccc(-c2nc3ccccc3s2)cc1 [Benzothiazole-IIIA] |  | increase |
